Measured values: patent US20240127967A1
Several values for one entry are separate records, joined by “and”; a condition that tells them apart may be missing. Equal entries are not always repeated. Entries after “also recorded” stand apart in the source; their conditions may differ. Where two headings read alike, the source gives them in different places.

What was measured:
EBOV/Mak [1] = conditions: cited from earlier work
[2] = in vivo, cited from earlier work
EBOV [3] = conditions: mouse, in vivo; cited from earlier work
EBOV/Mak [4] = assay: microbe, parasite or virus in culture; format: cell-based, Ebola virus; conditions: for IC50: Zaire ebolavirus
[5] = Tolerability of drugs in V8 in mice; conditions: in V8, once daily PO, eleven consecutive days; bepridil 500, toremifene 200, sertraline 60 and 100 mg/kg
[6] = female, C57BL/6, mouse, in vivo; for Cmax: po
[7] = Pharmacokinetic modeling of human oral PK data (Monolix); parameters: species or system humans; conditions: for V: fitted PK model parameter (volume of plasma/serum compartment); for k: fitted elimination rate
[8] = Solubility in ten test vehicles; conditions: for solubility in Vehicle #9: 3% NMP/45% PEG300/12% ethanol/40% sterile water; for solubility in Vehicle #9 / solubility in Vehicle #7 / solubility in Vehicle #6 / solubility in Vehicle #10 / solubility in Vehicle #8 / solubility in Vehicle #5 / solubility in Vehicle #4 / solubility in Vehicle #3: Bepridil 25, Sertraline 3, toremifene 8.4 mg/ml; for solubility in Vehicle #7: 5% NMP/95% PEG 300; for solubility in Vehicle #6: 10% Solutol/90% PEG 400; for solubility in Vehicle #2: 20% Captisol in water; for solubility in Vehicle #2 / solubility in Vehicle #1: Bepridil 25 mg/ml, Sertraline 3 mg/ml, toremifene 8.4 mg/ml; for solubility in Vehicle #10: 40% Propylene Glycol/30% Solutol HS 15/30% Sterile Water; for solubility in Vehicle #8: 80% PEG 400/20% of 0.1% Tween-20 in Water; for solubility in Vehicle #1: Aqueous Suspension Vehicle; for solubility in Vehicle #5: PEG 400; for solubility in Vehicle #4: Vegetable Oil; for solubility in Vehicle #3: […] PEG 400/[…] Tween 20/25% Capmul MCM NF
MARV = conditions: mouse, in vivo; cited from earlier work
in vivo = conditions: mouse, ip, 12 mg/kg
VSV-EBOV-GPΔ-Luc = format: cell-based, VSV pseudovirus bearing EBOV GP
[9] = State of V8 preparations after storage at 4° C.; format: physicochemical; conditions: stored at 4° C.
EBOV [10] = conditions: read-out: IC50 (HepG2); cited from earlier work
EBOV/Mak-005 = conditions: rhesus monkey, in vivo; cited from earlier work
EBOV [11] = test system: EBOV; parameters: species or system mice; conditions: mouse, in vivo
[12] = Huh-7, read-out: IC50 (average)

Compound	IC50 (EBOV/Mak [1]; read-out: IC50 (Huh7))	Survival (%) (EBOV [3])	Hill coefficient (EBOV/Mak [1])	peak concentration [2]	trough concentration [2]	tolerability in mice [5]	Cmax [6]	V [7]	solubility in Vehicle #9 [8]	solubility in Vehicle #7 [8]	solubility in Vehicle #6 [8]	solubility in Vehicle #2 [8]	solubility in Vehicle #10 [8]	solubility in Vehicle #8 [8]	solubility in Vehicle #1 [8]	solubility in Vehicle #5 [8]	solubility in Vehicle #4 [8]	solubility in Vehicle #3 [8]	state of preparation in Vehicle 8 when removed from the refrigerator [9]	IC50 (EBOV [10])	other results
Cc1cccc(/C=N/Nc2cc(N3CCOCC3)nc(OCCc3ccccn3)n2)c1 [Apilimod]	0.17 µM	–	–	–	–	–	–	–	–	–	–	–	–	–	–	–	–	–	–	–	Cmax ([2]; human, po): 260 nM
O=C1CCc2ccc(OCCCCN3CCN(c4cccc(Cl)c4Cl)CC3)cc2N1 [Aripiprazole]	–	10 ^1%	–	–	–	–	–	–	–	–	–	–	–	–	–	–	–	–	–	–	adverse effect in treated infected mice (EBOV [3]): ^1 Mice became extremely somnolent, thwarting eating and drinking, which likely contributed to low survival.
CC[C@H]1OC(=O)[C@H](C)[C@@H](O[C@H]2C[C@@](C)(OC)[C@@H](O)[C@H](C)O2)[C@H](C)[C@@H](O[C@@H]2O[C@H](C)C[C@H](N(C)C)[C@H]2O)[C@](C)(O)C[C@@H](C)CN(C)[C@H](C)[C@@H](O)[C@]1(C)O [Azithromycin]	10.8 µM	10, 30, 60 ^2%	–	–	–	–	–	–	–	–	–	–	–	–	–	–	–	–	–	–	–
CC(C)COCC(CN(Cc1ccccc1)c1ccccc1)N1CCCC1 (stereo not shown) [Bepridil]	5.86 µM	100% and 100 ^3%	4.859	3.63 (±1.48) μM	2.60 (±1.21) μM	well tolerated	~3000 nM	25.2	Clear solution	Clear solution	Clear solution	Slightly hazy	Clear solution	Clear solution	Suspension	Clear solution	Clear solution	Clear solution	always solid (as if it had frozen) and contained precipitate	3.21 µM	possible loss of potency on storage in V8 (EBOV/Mak [4]): < 2 fold; IC50 (EBOV/Mak [4]; Huh-7): 4.5 µM; IC50 (EBOV/Mak [4]; [12]): 4.53 µM; IC50 (EBOV/Mak [1]; read-out: IC50): 5.86 µM; Cmax obtained relative to prediction, fold higher [6]: ~1.8 fold; Tk0 ([7]; fitted PK model parameter): 0.0873 days; k12 ([7]; fitted PK model parameter): 6.71 per day; k21 ([7]; fitted PK model parameter): 1.61 per day; k [7]: 0.348 per day; single drug effect (Ebola virus): exceeds 80%; Survival (%) (MARV): 90 ^4%; Cmax (in vivo): 3300 nM; stability of inhibitory activity of stock in V8 (VSV-EBOV-GPΔ-Luc): maintained inhibitory activity over 15 days
CN[C@H]1CC[C@@H](c2ccc(Cl)c(Cl)c2)c2ccccc21 [Sertraline]	–	70% and 70 ^ %	1.628	–	–	well tolerated	~1200 nM	909	Clear solution	Clear solution	Clear solution	Clear solution	Clear solution	Clear solution	Suspension	Clear solution	Clear solution	Clear solution	no precipitates, not solid	–	Cmax obtained relative to prediction, fold higher [6]: ~1.2 fold; Tlag ([7]; fitted PK model parameter): 0.0976 days; efficacy in macaques (EBOV/Mak-005): not effective; also recorded: did not protect
CN(C)CCOc1ccc(/C(=C(/CCCl)c2ccccc2)c2ccccc2)cc1 [Toremifene]	3.64 µM	50% and 50 ^ %	3.057	1.18 (±0.42) μM	0.29 µM	well tolerated	~4400 nM	354	Clear solution	Clear solution	Suspension	Clear solution	Insoluble	Clear solution	Suspension	Suspension	Non-	Suspension	no precipitates, not solid	0.03 µM	IC50 (EBOV/Mak [4]; [12]): 1.83 µM; IC50 (EBOV/Mak [1]; read-out: IC50): 3.64 µM; approximated protection of infected mice (EBOV [11]): ~50%; reasoned survival (EBOV [11]): ~7%; estimated survival (EBOV [11]; po, 200 mg/kg): ~50%; Cmax obtained relative to prediction, fold lower [6]: ~1.4 fold; k12 ([7]; fitted PK model parameter): 4.28 per day; k21 ([7]; fitted PK model parameter): 0.992 per day; ka ([7]; fitted absorption rate): 16.6 per day; k [7]: 0.000198 per day; stability of inhibitory activity of stock in V8 (VSV-EBOV-GPΔ-Luc): began to lose activity after about 1 week
CCOC(=O)c1c(CSc2ccccc2)n(C)c2cc(Br)c(O)c(CN(C)C)c12 [arbidol]	–	–	–	0.77 (±0.23) μM	0.32 (±0.09) μM	–	–	–	–	–	–	–	–	–	–	–	–	–	–	–	baseline efficacy (SARS-CoV-2): 36%
CC(=O)c1ccc2c(c1)N(CCCN1CCC(CCO)CC1)c1ccccc1S2 [piperacetazine, Piperacetazine]	7.58 µM	–	–	–	–	–	–	–	–	–	–	–	–	–	–	–	–	–	–	3.3 µM	–
CCC(CC)COC(=O)[C@H](C)N[P@](=O)(OC[C@H]1O[C@@](C#N)(c2ccc3c(N)ncnn23)[C@H](O)[C@@H]1O)Oc1ccccc1 [remdesivir]	–	–	–	5.34 (±0.03) μM	–	–	–	–	–	–	–	–	–	–	–	–	–	–	–	–	median t1/2 [2]: ≈ 1 hour; time of peak concentration [2]: 1.03 (±0.01) hour; baseline efficacy (SARS-CoV-2): 60%
O=C(Nc1ncc([N+](=O)[O-])s1)c1ccccc1O [tizoxanide]	–	–	–	17.34 (±13.61)	3.02 (±7.43)	–	–	–	–	–	–	–	–	–	–	–	–	–	–	–	–
